Test results reported in patent publication USRE48335E1, “Polymyxin derivatives as antimicrobial compounds” (priority 2014, dated 2020).
In brackets after ≈: the same amount, converted by molar mass. Positions of bridges follow the written chain, without caps; N, C: chain ends. Non-standard residues stand in square brackets, D forms with d. Residues, ends and D or L forms follow the SMILES beside them. *: point of attachment. Heptanoyl(6-Me) = CC(C)CCCCC(=O)*; Lauroyl = CCCCCCCCCCCC(=O)*; X24 = Cc1ccc(C(=O)*)c(C)c1; Nonanoyl = CCCCCCCCC(=O)*; Heptanoyl = CCCCCCC(=O)*; Octanoyl = CCCCCCCC(=O)*; Dab = NCC[C@H](N)C(=O)O; X43 = O=C(c1cccc(F)c1)*; Abu = CC[C@H](N)C(=O)O; Dap = NC[C@H](N)C(=O)O; X34 = Cc1ccccc1CC(=O)*

Columns and labels:
Enterobacter cloacae = test system: Enterobacter cloacae
Description: (§1) MICs of the lipopeptides (trifluoroacetic acid salt, TFA) were determined by broth microdilution in cation-adjusted Mueller-Hinton broth (CAMHB) (Oxoid Australia, Thebarton, SA, Australia) according to Clinical and Laboratory Standards Institute standards (Clinical and Laboratory Standards Institute. Performance standards for antimicrobial susceptibility testing; eighteenth informational supplement M100-S18. Wayne, Pa., 2008). Polymyxin B (sulphate) was employed as control. […]

Acinetobacter baumannii = test system: Acinetobacter baumannii
Description: as §1

Pseudomonas aeruginosa = test system: Pseudomonas aeruginosa
Description: as §1

SMILES | Minimum inhibitory concentration, Ec FADDI-EC001 (Enterobacter cloacae) [µg/mL] | Minimum inhibitory concentration, Ec FADDI-EC003 (Enterobacter cloacae) [µg/mL] | Minimum inhibitory concentration, Ec FADDI-EC006 (Enterobacter cloacae) [µg/mL] | Minimum inhibitory concentration, Ab A ATCC 17978 (Acinetobacter baumannii) [µg/mL] | Minimum inhibitory concentration, Ab ATCC 19606 (Acinetobacter baumannii) [µg/mL] | Minimum inhibitory concentration, Ab FADDI-AB034 (Acinetobacter baumannii) [µg/mL] | Minimum inhibitory concentration, Pa ATCC 27853 (Pseudomonas aeruginosa) [µg/mL] | Minimum inhibitory concentration, Pa FADDI-PA022 (Pseudomonas aeruginosa) [µg/mL] | Minimum inhibitory concentration, Pa FADDI-PA025 (Pseudomonas aeruginosa) [µg/mL]
CCCCCCCCC(=O)N[C@@H](CCN)C(=O)N[C@H](C(=O)N[C@@H](CCN)C(=O)N[C@H]1CCNC(=O)[C@H]([C@@H](C)O)NC(=O)[C@H](CCN)NC(=O)[C@H](CCN)NC(=O)[C@H]([C@@H](C)O)NC(=O)[C@@H](CC(C)C)NC(=O)[C@H](CCN)NC1=O)[C@@H](C)O [Compound 43] (Nonanoyl-[Dab]T[Dab][Dab][Dab][dL]T[Dab][Dab]T; lactam 4-C) | 0.25 (≈ 0.216 µM) | <0.125 | 0.5 (≈ 0.432 µM) | 0.5 (≈ 0.432 µM) | 0.5 (≈ 0.432 µM) | 1 (≈ 0.864 µM) | 0.5 (≈ 0.432 µM) | 1 (≈ 0.864 µM) | 16 (≈ 13.8 µM)
CC(C)CCCCC(=O)N[C@@H](CCN)C(=O)N[C@H](C(=O)N[C@@H](CN)C(=O)N[C@H]1CCNC(=O)[C@H]([C@@H](C)O)NC(=O)[C@H](CCN)NC(=O)[C@H](CCN)NC(=O)[C@H](C)NC(=O)[C@@H](CC(C)C)NC(=O)[C@H](CCN)NC1=O)[C@@H](C)O [Compound 65] ({Heptanoyl(6-Me)}-[Dab]T[Dap][Dab][Dab][dL]A[Dab][Dab]T; lactam 4-C) | 0.5 (≈ 0.455 µM) | <0.125 | 0.25 (≈ 0.227 µM) | 0.25 (≈ 0.227 µM) | 0.5 (≈ 0.455 µM) | 1 (≈ 0.91 µM) | 1 (≈ 0.91 µM) | 2 (≈ 1.82 µM) | 16 (≈ 14.6 µM)
CCCCCCCCCCCC(=O)N[C@@H](CCN)C(=O)N[C@H](C(=O)N[C@H](CO)C(=O)N[C@H]1CCNC(=O)[C@H]([C@@H](C)O)NC(=O)[C@H](CCN)NC(=O)[C@H](CCN)NC(=O)[C@H]([C@@H](C)O)NC(=O)[C@@H](CC(C)C)NC(=O)[C@H](CCN)NC1=O)[C@@H](C)O [Compound 10] (Lauroyl-[Dab]T[dS][Dab][Dab][dL]T[Dab][Dab]T; lactam 4-C) | 1 (≈ 0.843 µM) | 0.5 (≈ 0.421 µM) | 1 (≈ 0.843 µM) | 0.5 (≈ 0.421 µM) | 1 (≈ 0.843 µM) | 1 (≈ 0.843 µM) | 2 (≈ 1.69 µM) | 4 (≈ 3.37 µM) | 4 (≈ 3.37 µM)
CC[C@@H]1NC(=O)[C@@H](CC(C)C)NC(=O)[C@H](CCN)NC(=O)[C@@H](NC(=O)[C@H](CN)NC(=O)[C@@H](NC(=O)[C@H](CCN)NC(=O)Cc2ccccc2C)[C@@H](C)O)CCNC(=O)[C@H]([C@@H](C)O)NC(=O)[C@H](CCN)NC(=O)[C@H](CCN)NC1=O [Compound 76] (X34-[Dab]T[Dap][Dab][Dab][dL][Abu][Dab][Dab]T; lactam 4-C) | 0.25 (≈ 0.223 µM) | 0.25 (≈ 0.223 µM) | 0.5 (≈ 0.447 µM) | 1 (≈ 0.893 µM) | 2 (≈ 1.79 µM) | 1 (≈ 0.893 µM) | 0.5 (≈ 0.447 µM) | 1 (≈ 0.893 µM) | 4 (≈ 3.57 µM)
CCCCCCCC(=O)N[C@@H](CCN)C(=O)N[C@H](C(=O)N[C@@H](CCN)C(=O)N[C@H]1CCNC(=O)[C@H]([C@@H](C)O)NC(=O)[C@H](CCN)NC(=O)[C@H](CCN)NC(=O)[C@H](CC)NC(=O)[C@@H](CC(C)C)NC(=O)[C@H](CCN)NC1=O)[C@@H](C)O [Compound 60] (Octanoyl-[Dab]T[Dab][Dab][Dab][dL][Abu][Dab][Dab]T; lactam 4-C) | <0.125 | <0.125 | 0.5 (≈ 0.443 µM) | 0.5 (≈ 0.443 µM) | 1 (≈ 0.887 µM) | 0.5 (≈ 0.443 µM) | 0.5 (≈ 0.443 µM) | 0.5 (≈ 0.443 µM) | 8 (≈ 7.1 µM)
CCCCCCC(=O)N[C@@H](CCN)C(=O)N[C@H](C(=O)N[C@H](CO)C(=O)N[C@H]1CCNC(=O)[C@H]([C@@H](C)O)NC(=O)[C@H](CCN)NC(=O)[C@H](CCN)NC(=O)[C@H]([C@@H](C)O)NC(=O)[C@@H](CC(C)C)NC(=O)[C@H](CCN)NC1=O)[C@@H](C)O [Compound 16] (Heptanoyl-[Dab]T[dS][Dab][Dab][dL]T[Dab][Dab]T; lactam 4-C) | 0.5 (≈ 0.448 µM) | 0.25 (≈ 0.224 µM) | 0.25 (≈ 0.224 µM) | 0.5 (≈ 0.448 µM) | 2 (≈ 1.79 µM) | 2 (≈ 1.79 µM) | 4 (≈ 3.58 µM) | 4 (≈ 3.58 µM) | >32
CC[C@@H]1NC(=O)[C@@H](CC(C)C)NC(=O)[C@H](CCN)NC(=O)[C@@H](NC(=O)[C@H](CN)NC(=O)[C@@H](NC(=O)[C@H](CCN)NC(=O)c2ccc(C)cc2C)[C@@H](C)O)CCNC(=O)[C@H]([C@@H](C)O)NC(=O)[C@H](CCN)NC(=O)[C@H](CCN)NC1=O [Compound 89] (X24-[Dab]T[Dap][Dab][Dab][dL][Abu][Dab][Dab]T; lactam 4-C) | <0.125 | <0.125 | 2 (≈ 1.79 µM) | 1 (≈ 0.893 µM) | 4 (≈ 3.57 µM) | 1 (≈ 0.893 µM) | 0.5 (≈ 0.447 µM) | 1 (≈ 0.893 µM) | 4 (≈ 3.57 µM)
CC[C@@H]1NC(=O)[C@@H](CC(C)C)NC(=O)[C@H](CCN)NC(=O)[C@@H](NC(=O)[C@H](CN)NC(=O)[C@@H](NC(=O)[C@H](CCN)NC(=O)c2cccc(F)c2)[C@@H](C)O)CCNC(=O)[C@H]([C@@H](C)O)NC(=O)[C@H](CCN)NC(=O)[C@H](CCN)NC1=O [Compound 86] (X43-[Dab]T[Dap][Dab][Dab][dL][Abu][Dab][Dab]T; lactam 4-C) | 1 (≈ 0.901 µM) | 1 (≈ 0.901 µM) | 1 (≈ 0.901 µM) | 2 (≈ 1.8 µM) | 4 (≈ 3.61 µM) | 1 (≈ 0.901 µM) | 0.5 (≈ 0.451 µM) | 1 (≈ 0.901 µM) | 2 (≈ 1.8 µM)
